Laboratory results: patent publication US11028095B2, “Spiro-lactam and bis-spiro-lactam NMDA receptor modulators and uses thereof” (Aptinyx Inc., priority 2016, dated 2021)

Test system: Sciatic nerve chronic constriction nerve injury
Test: Bennett nerve injury assay (mechanical analgesia, paw withdrawal threshold)
Type: in vivo, Sprague Dawley rats
Protocol: The Bennett model of mechanical analgesia is used to assess the analgesic effects of compounds as measured by paw withdrawal threshold. Bennett G J, Xie Y K, “A peripheral mononeuropathy in rat that produces disorders of pain sensation like those seen in man,” Pain 33:87-107, 1988. […] Vehicle animals receive the surgery and then receive vehicle rather than test compound. Animals were tested 1 hr, 24 h and 1 wk post-test compound or vehicle administration.
Male 2-3 month old Sprague Dawley rats were used. Harlan was the supplier for all studies. Rats were housed in Lucite cages with aspen wood chip bedding, maintained on a 12:12 light:dark cycle (lights on at 5 AM), and given ad libitum access to Purina lab chow (USA) and tap water throughout the study.
Rats were anesthetized using inhaled isoflurane (2.5%). Sciatic nerve chronic constriction nerve injury surgery was performed as previously described (Bennett and Xie, 1988). An incision (˜1.5 cm in length) was made with a scalpel blade dorsally through skin on the right hind limb, parallel and posterior to femur. Using a small pointed hemostat, the biceps femoris and gluteus superficialis muscles were separated. Using curved blunt forceps, the common sciatic nerve was isolated and exposed. For the mechanical analgesia studies, the whole sciatic nerve was ligated. Using hemostats/forceps and chromic gut (5-0), the nerve was loosely ligated with a square knot; 3 ligatures, 1 mm apart were placed on the nerve. […] Testing occurred approximately 2 weeks post-surgery.
During testing, rats were acclimated to the surface of a suspended wire mesh grid (1 cm×1 cm, with the wire being 0.3 cm in diameter) for 15-20 min Starting from the smallest, each Von Frey filament was pressed perpendicularly to the plantar surface of the affected (ipsilateral) hind paw until slightly bent and then held for 6 second. If an obvious hind paw withdrawal or a flinching behavior immediately after the withdrawal of the filament was not observed, the next larger filament was used in the same manner. In case of a response, a lower filament was used. This was repeated until six responses were collected.
For all studies, animals were baselined prior to study start to test for allodynia (defined as a paw withdrawal threshold under 5). A subset of animals was tested with gabapentin (150 mg/kg, PO) to ensure at least 50% analgesia. Once it was confirmed animals were ready for study initiation, animals were balanced across groups. All study investigators were blind to treatment conditions. Animals were dosed with 0.1, 1 or 10 mg/kg of test compound via oral gavage (PO), control sets of animals were dosed with gabapentin (150 mg/kg, PO) or vehicle (0.5% Na-CMC in 0.9% sterile saline, PO). Testing occurred 1 h post-dosing with animals retested 24 hrs and 1 week post-dosing. The percent analgesia calculations for each animal were made using the following equation: % analgesia=[(log(x)−y)/((log (z)−y)]*100, where x=the paw withdrawal threshold for the drug-treated animal in grams, y=the average of the log(x) values for the vehicle treated group, and z=the paw withdrawal threshold for naïve animals in grams (historical value of 15 used). The results for Compound AD, where the percentage of analgesia is measured at 1 hour, 24 hours, and 1 week after compound administration are as follows: for 0.1 mg/kg dose: 37.8% at 1 h, 29.7% at 24 h, and 63.1% at 1 wk; for 1 mg/kg dose: 48.8% at 1 h, 20.6% at 24 h, and 19.8% at 1 wk; and for 10 mg/kg dose: 70.3% at 1 h, 38.8% at 24 h, and 11.3% at 1 wk.

CC(C)CN1[C@@]2(CC[C@@]13CNC3=O)CNC2=O [Compound AD, 5-isobutyl-2,5,8-triazadispiro[3.1.36.24]undecane-1,7-dione]
percentage of analgesia (0.1 mg/kg PO, 1 wk after administration): 63.1%
percentage of analgesia (0.1 mg/kg PO, 1 h after administration): 37.8%
percentage of analgesia (0.1 mg/kg PO, 24 h after administration): 29.7%
percentage of analgesia (1 mg/kg PO, 1 wk after administration): 19.8%
percentage of analgesia (1 mg/kg PO, 1 h after administration): 48.8%
percentage of analgesia (1 mg/kg PO, 24 h after administration): 20.6%
percentage of analgesia (10 mg/kg PO, 1 wk after administration): 11.3%
percentage of analgesia (10 mg/kg PO, 1 h after administration): 70.3%
percentage of analgesia (10 mg/kg PO, 24 h after administration): 38.8%
